# In patent US9428492B2, “Secondary alcohol substituted triazoles as PDE10 inhibitors” (Merck Sharp & Dohme Corp., priority 2012, dated 2016):
# Like-named read-outs stand apart in the source and are kept apart here.
# Columns and labels:
# [1] = molecular target: human PDE10A2 (Homo sapiens (Human), UniProt Q9Y233); test: PDE10 fluorescence polarization (IMAP FP) inhibition assay; type: biochemical
# Experimental: The activity of the compounds in accordance with the present invention as PDE10 inhibitors may be readily determined without undue experimentation using a fluorescence polarization (FP) methodology that is well known in the art (Huang, W., et al., J. Biomol Screen, 2002, 7: 215).
# In a typical experiment the PDE10 inhibitory activity of the compounds of the present invention was determined in accordance with the following experimental method. PDE10A2 was amplified from human fetal brain cDNA (Clontech, Mountain View, Calif.) using a forward primer corresponding to nucleotides 56-77 of human PDE10A2 (Accession No. AF127480, Genbank Identifier 4894716), containing a Kozak consensus sequence, and a reverse primer corresponding to nucleotides 2406-2413 of human PDE10A2 (Accession No. AF127480, Genbank Identifier 4894716). Amplification with Easy-A polymerase (Stratagene, La Jolla, Calif.) was 95° C. for 2 minutes followed by thirty three cycles of 95° C. for 40 seconds, 55° C. for 30 seconds, and 72° C. for 2 minutes 48 seconds. Final extension was 72° C. for 7 minutes. The PCR product was TA cloned into pcDNA3.2-TOPO (Invitrogen, Carlsbad, Calif.) according to standard protocol. AD293 cells with 70-80% confluency were transiently transfected with human PDE10A2/pcDNA3.2-TOPO using Lipofectamine 2000 according to manufacturer specifications (Invitrogen, Carlsbad, Calif.). Cells were harvested 48 hours post-transfection and lysed by sonication (setting 3, 10×5 sec pulses) in a buffer containing 20 mM HEPES, 1 mM EDTA and protease inhibitor cocktail (Roche). Lysate was collected by centrifugation at 75,000×g for 20 minutes. Supernatant containing the cytoplasmic fraction was used for evaluation of PDE10A2 activity. The fluorescence polarization assay for cyclic nucleotide phosphodiesterases was performed using an IMAP® FP kit supplied by Molecular Devices, Sunnyvale, Calif. (product # R8139). IMAP® technology has been applied previously to phosphodiesterase assays (Huang, W., et al., J. Biomol Screen, 2002, 7: 215). Assays were performed at room temperature in 384-well microtiter plates with an incubation volume of 20.2 μL. Solutions of test compounds were prepared in DMSO and serially diluted with DMSO to yield 8 μL of each of 10 solutions differing by 3-fold in concentration, at 32 serial dilutions per plate. […] 0% of inhibition is determined by using DMSO (1% final concentrations).
# A Labcyte Echo 555 (Labcyte, Sunnyvale, Calif.) is used to dispense 200 nL from each well of the titration plate to the 384 well assay plate. A solution of enzyme (1/1600 dilution from aliquots; sufficient to produce 20% substrate conversion) and a separate solution of FAM-labeled cAMP PDE from Molecular Devices (product # R7506), at a final concentration of 50 nM are made in the assay buffer (10 mM Tris HCl, pH 7.2, 10 mM MgCl2, 0.05% NaN3 0.01% Tween-20, and 1 mM DTT). The enzyme and the substrate are then added to the assay plates in two consecutive additions of 10 μL, and then shaken to mix. The reaction is allowed to proceed at room temperature for 30 minutes. […] The enzymatic reaction is stopped by addition of 60 μL of the binding solution to each well of the assay plates and the plates are sealed and shaken for 10 seconds. The plate was incubated at room temperature for at least one hour prior to determining the fluorescence polarization (FP). The parallel and perpendicular fluorescence of each well of the plate was measured using a Perkin Elmer EnVision™ plate reader (Waltham, Mass.).
# Fluorescence polarization (mP) was calculated from the parallel (S) and perpendicular (P) fluorescence of each sample well and the analogous values for the median control well, containing only substrate (So and Po), using the following equation: Polarization (mP)=1000*(S/So−P/Po)/(S/So+P/Po).
# Dose-inhibition profiles for each compound were characterized by fitting the mP data to a four-parameter equation given below.
# [2] = molecular target: CYP2C9 (Homo sapiens (Human), UniProt P11712); test: reversible inhibition of CYP2C9; type: in vitro ADME
# Chain of CYP2C9 (P11712 whole entry): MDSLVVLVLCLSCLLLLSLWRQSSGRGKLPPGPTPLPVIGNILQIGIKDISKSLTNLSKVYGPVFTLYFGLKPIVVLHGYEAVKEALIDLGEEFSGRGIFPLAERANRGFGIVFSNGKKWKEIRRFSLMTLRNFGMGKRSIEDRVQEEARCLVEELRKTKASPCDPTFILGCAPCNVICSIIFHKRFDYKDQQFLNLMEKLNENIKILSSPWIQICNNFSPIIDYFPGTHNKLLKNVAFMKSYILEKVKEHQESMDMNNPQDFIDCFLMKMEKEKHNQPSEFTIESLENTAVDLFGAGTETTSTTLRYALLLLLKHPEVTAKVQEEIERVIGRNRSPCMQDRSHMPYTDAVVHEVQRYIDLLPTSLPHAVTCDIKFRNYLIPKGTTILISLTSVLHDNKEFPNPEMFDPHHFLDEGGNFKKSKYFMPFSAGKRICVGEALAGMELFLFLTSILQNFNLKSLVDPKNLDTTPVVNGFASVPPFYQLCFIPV
# [3] = molecular target: CYP3A4 (Homo sapiens (Human), UniProt P08684); test: time-dependent inhibition (TDI) of CYP3A4; type: in vitro ADME; conditions: for time-dependent inhibition (TDI) of the CYP3A4 enzyme: result in words
# Chain of CYP3A4 (P08684 whole entry): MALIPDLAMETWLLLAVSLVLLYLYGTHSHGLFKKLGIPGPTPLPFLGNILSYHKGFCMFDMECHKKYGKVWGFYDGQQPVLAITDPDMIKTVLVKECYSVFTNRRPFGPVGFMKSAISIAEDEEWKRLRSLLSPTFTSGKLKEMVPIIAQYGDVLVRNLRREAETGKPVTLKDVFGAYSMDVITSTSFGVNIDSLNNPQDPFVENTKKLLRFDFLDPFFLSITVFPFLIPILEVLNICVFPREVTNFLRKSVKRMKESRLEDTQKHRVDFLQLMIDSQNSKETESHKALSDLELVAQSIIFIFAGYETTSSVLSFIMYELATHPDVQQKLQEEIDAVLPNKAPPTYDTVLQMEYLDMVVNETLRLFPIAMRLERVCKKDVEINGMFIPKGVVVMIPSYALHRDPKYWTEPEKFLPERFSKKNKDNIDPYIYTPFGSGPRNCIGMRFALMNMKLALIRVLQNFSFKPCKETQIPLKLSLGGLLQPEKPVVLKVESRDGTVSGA
# [4] = comparison table with Compounds A, B, C, read-out: PDE10 Ki
# Chain of human PDE10A2 (Q9Y233 267-1055): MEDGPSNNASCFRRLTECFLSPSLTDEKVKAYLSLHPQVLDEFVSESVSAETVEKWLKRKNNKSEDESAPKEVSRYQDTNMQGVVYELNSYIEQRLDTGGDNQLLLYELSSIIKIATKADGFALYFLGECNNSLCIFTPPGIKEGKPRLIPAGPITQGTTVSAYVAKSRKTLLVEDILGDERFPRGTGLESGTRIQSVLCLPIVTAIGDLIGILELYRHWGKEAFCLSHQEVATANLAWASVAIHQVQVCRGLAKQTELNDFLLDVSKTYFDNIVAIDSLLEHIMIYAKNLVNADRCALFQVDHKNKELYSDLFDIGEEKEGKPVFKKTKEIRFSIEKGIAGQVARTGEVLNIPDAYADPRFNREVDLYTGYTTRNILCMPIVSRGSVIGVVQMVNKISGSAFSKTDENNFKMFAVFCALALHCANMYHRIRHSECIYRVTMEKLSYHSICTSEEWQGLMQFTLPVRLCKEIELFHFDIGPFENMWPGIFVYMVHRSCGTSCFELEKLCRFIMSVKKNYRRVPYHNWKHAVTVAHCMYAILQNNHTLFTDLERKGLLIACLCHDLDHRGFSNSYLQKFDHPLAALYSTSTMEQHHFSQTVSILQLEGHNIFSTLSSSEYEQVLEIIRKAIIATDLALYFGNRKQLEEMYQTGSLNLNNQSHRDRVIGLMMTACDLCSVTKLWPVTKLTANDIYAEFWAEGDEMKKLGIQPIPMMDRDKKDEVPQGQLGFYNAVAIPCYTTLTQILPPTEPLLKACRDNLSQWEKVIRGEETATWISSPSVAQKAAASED
"Ki [1, 4]",Ki ([1]; read-out: PDE10a Ki),IC50 [2],TDI CYP3A4 shift ratio [3],time-dependent inhibition (TDI) of the CYP3A4 enzyme [3],SMILES
0.06 nM,0.06 nM,> 50000 nM,1,do not exhibit TDI of CYP3A4,"Cc1nc(N2CC(c3nc4ccccc4n3C)C2)cc(-n2nc(C)nc2C(O)C(F)(F)F)n1 (single isomer, unassigned) [Example 3b, 2,2,2-trifluoro-1-(3-methyl-1-(2-methyl-6-(3-(1-methyl-1H-benzo[d]imidazol-2-yl)azetidin-1-yl)pyrimidin-4-yl)-1H-1,2,4-triazol-5-yl)ethanol]"
0.17 nM,0.17 nM,> 50000 nM,1,do not exhibit TDI of CYP3A4,"Cc1nc(N2CC(c3nc4ccccc4n3C)C2)cc(-n2nc(C)nc2C(O)C2CC2)n1 (single isomer, unassigned) [Example 6a, cyclopropyl(3-methyl-1-(2-methyl-6-(3-(1-methyl-1H-benzo[d]imidazol-2-yl)azetidin-1-yl)pyrimidin-4-yl)-1H-1,2,4-triazol-5-yl)methanol]"
4.2 nM,–,> 50000 nM,1,–,"Cc1nc([C@@H]2C[C@H]2c2nc3ccccc3n2C)cc(-n2nc(C)nc2C(C)(C)O)n1 [Compound A, 2-(3-methyl-1-(2-methyl-6-((1R,2R)-2-(1-methyl-1H-benzo[d]imidazol-2-yl)cyclopropyl)pyrimidin-4-yl)-1H-1,2,4-triazol-5-yl)propan-2-ol, reference compound]"
1.2 nM,1.2 nM,> 50000 nM,1,do not exhibit TDI of CYP3A4,"Cc1nc(N2CC(c3nc4ccccc4n3C)C2)cc(-n2nc(C)nc2[C@@H](C)O)n1 [Example 2, (R)-1-(3-methyl-1-(2-methyl-6-(3-(1-methyl-1H-benzo[d]imidazol-2-yl)azetidin-1-yl)pyrimidin-4-yl)-1H-1,2,4-triazol-5-yl)ethanol]"
0.51 nM,0.41 nM,> 50000 nM,1,do not exhibit TDI of CYP3A4,"CCC(O)c1nc(C)nn1-c1cc(N2CC(c3nc4ccccc4n3C)C2)nc(C)n1 (single isomer, unassigned) [Example 4b, 1-(3-methyl-1-(2-methyl-6-(3-(1-methyl-1H-benzo[d]imidazol-2-yl)azetidin-1-yl)pyrimidin-4-yl)-1H-1,2,4-triazol-5-yl)propan-1-ol]"
1.1 nM,1.1 nM,> 50000 nM,1,do not exhibit TDI of CYP3A4,"Cc1nc([C@@H]2C[C@H]2c2nc3ccccc3n2C)cc(-n2nc(C)nc2[C@@H](C)O)n1 [Example 14, (R)-1-(3-methyl-1-(2-methyl-6-((1R,2R)-2-(1-methyl-1H-benzo[d]imidazol-2-yl)cyclopropyl)pyrimidin-4-yl)-1H-1,2,4-triazol-5-yl)ethanol]"
2.1 nM,–,10500 nM,1,–,"CO[C@@H](C)c1nc(C)nn1-c1cc([C@@H]2C[C@H]2c2nc3ccccc3n2C)nc(C)n1 [Compound B, 2-((1R,2R)-2-(6-(5-((S)-1-methoxyethyl)-3-methyl-1H-1,2,4-triazol-1-yl)-2-methylpyrimidin-4-yl)cyclopropyl)-1-methyl-1H-benzo[d]imidazole, reference compound]"
–,–,> 50000 nM,–,do not exhibit TDI of CYP3A4,"CCC(O)c1nc(C)nn1-c1cc([C@@H]2C[C@H]2c2nc3ccccc3n2C)nc(C)n1 (single isomer, unassigned) [Example 19a]"
–,0.92 nM,–,–,–,"Cc1nc(C2C[C@H]2c2nc3ccccc3n2C)cc(-n2nc(C)nc2C(O)C(F)(F)F)n1 (single isomer, unassigned) [Example 20b]"
–,0.09 nM,–,–,–,"Cc1nc([C@@H]2C[C@H]2c2nc3ccccc3n2C)cc(-n2nc(C)nc2[C@H](O)c2ccccc2)n1 [Example 15, (R)-(3-methyl-1-(2-methyl-6-((1R,2R)-2-(1-methyl-1H-benzo[d]imidazol-2-yl)cyclopropyl)pyrimidin-4-yl)-1H-1,2,4-triazol-5-yl)(phenyl)methanol]"
–,0.83 nM,–,–,–,"Cc1nc(C(C)O)n(-c2cc(N3CC(c4nc5ccccc5n4C)C3)nc(C(F)(F)F)n2)n1 (stereo not shown) [Example 8, 1-(3-methyl-1-(6-(3-(1-methyl-1H-benzo[d]imidazol-2-yl)azetidin-1-yl)-2-(trifluoromethyl)pyrimidin-4-yl)-1H-1,2,4-triazol-5-yl)ethanol]"
–,0.51 nM,–,–,–,"CCC(O)c1nc(C)nn1-c1cc(N2CC(c3nc4ccccc4n3C)C2)nc(C)n1 (stereo not shown) [Example 4, 1-(3-methyl-1-(2-methyl-6-(3-(1-methyl-1H-benzo[d]imidazol-2-yl)azetidin-1-yl)pyrimidin-4-yl)-1H-1,2,4-triazol-5-yl)propan-1-ol]"
–,0.41 nM,–,–,–,"Cc1nc(N2CC(c3nc4ccccc4n3C)C2)cc(-n2nc(C)nc2C(O)C(C)C)n1 (stereo not shown) [Example 5, 2-methyl-1-(3-methyl-1-(2-methyl-6-(3-(1-methyl-1H-benzo[d]imidazol-2-yl)azetidin-1-yl)pyrimidin-4-yl)-1H-1,2,4-triazol-5-yl)propan-1-ol]"
–,0.53 nM,–,–,–,"Cc1nc(C(C)O)n(-c2cc(N3CC(c4nc5ccccc5n4C)C3)nc(C(F)(F)F)n2)n1 (single isomer, unassigned) [Example 8a, 1-(3-methyl-1-(6-(3-(1-methyl-1H-benzo[d]imidazol-2-yl)azetidin-1-yl)-2-(trifluoromethyl)pyrimidin-4-yl)-1H-1,2,4-triazol-5-yl)ethanol]"
–,2.5 nM,–,–,–,"Cc1nc(N2CC(c3nc4ccccc4n3C)C2)cc(-n2nc(C)nc2C(O)CC(F)(F)F)n1 (single isomer, unassigned) [Example 7b, 3,3,3-trifluoro-1-(3-methyl-1-(2-methyl-6-(3-(1-methyl-1H-benzo[d]imidazol-2-yl)azetidin-1-yl)pyrimidin-4-yl)-1H-1,2,4-triazol-5-yl)propan-1-ol]"
–,0.58 nM,–,–,–,"Cc1nc(C2C[C@H]2c2nc3ccccc3n2C)cc(-n2nc(C)nc2C(O)C(F)(F)F)n1 (single isomer, unassigned) [Example 20a]"
–,1 nM,–,–,–,"Cc1nc(N2CC(c3nc4ccccc4n3C)C2)cc(-n2nc(C)nc2C(O)C(F)(F)F)n1 (single isomer, unassigned) [Example 3a, 2,2,2-trifluoro-1-(3-methyl-1-(2-methyl-6-(3-(1-methyl-1H-benzo[d]imidazol-2-yl)azetidin-1-yl)pyrimidin-4-yl)-1H-1,2,4-triazol-5-yl)ethanol]"

SMILES,"Ki [1, 4]",Ki ([1]; read-out: PDE10a Ki),IC50 [2],TDI CYP3A4 shift ratio [3],time-dependent inhibition (TDI) of the CYP3A4 enzyme [3]
"COCc1nc(C)nn1-c1cc([C@@H]2C[C@H]2c2nc3ccccc3n2C)nc(C)n1 [Compound C, 2-((1R,2R)-2-(6-(5-(methoxymethyl)-3-methyl-1H-1,2,4-triazol-1-yl)-2-methylpyrimidin-4-yl)cyclopropyl)-1-methyl-1H-benzo[d]imidazole, reference compound]",0.49 nM,–,46000 nM,>1.98,exhibited time-dependent inhibition (TDI) of the CYP3A4 enzyme
